From PubChem BioAssay (NCI)
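Interpolation was linear, between the two tested concentrations surrounding the appropriate level; five concentrations were tested over 48 hours in 96-well plates. At the TGI there is no net growth.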

Assays:
Test in all cases: inhibition of tumour cell growth, NCI panel, 48 h
A498 renal = system: A498 renal
CAKI-1 renal = system: CAKI-1 renal
HCC-2998 colon = system: HCC-2998 colon
HL-60(TB) leukemia = system: HL-60(TB) leukemia
K-562 leukemia = system: K-562 leukemia
MCF7 breast = system: MCF7 breast
NCI-H23 lung = system: NCI-H23 lung
OVCAR-3 ovarian = system: OVCAR-3 ovarian
RPMI-8226 leukemia = system: RPMI-8226 leukemia
SK-MEL-28 melanoma = system: SK-MEL-28 melanoma
SK-MEL-5 melanoma = system: SK-MEL-5 melanoma
SNB-19 CNS = system: SNB-19 CNS
TK-10 renal = system: TK-10 renal

NC(=O)C(Nc1ccc(Cl)cc1)c1cc2cc(Br)ccc2nc1Cl (configuration not stated)
TGI (A498 renal): > 50 µM
TGI (CAKI-1 renal): > 50 µM
TGI (HCC-2998 colon): > 50 µM
TGI (HL-60(TB) leukemia): > 50 µM
TGI (K-562 leukemia): > 50 µM
TGI (MCF7 breast): > 50 µM
TGI (NCI-H23 lung): > 50 µM
TGI (OVCAR-3 ovarian): > 50 µM
TGI (RPMI-8226 leukemia): > 50 µM
TGI (SK-MEL-28 melanoma): > 50 µM
TGI (SK-MEL-5 melanoma): > 50 µM
TGI (SNB-19 CNS): > 50 µM
TGI (TK-10 renal): 47.7 µM

O=C(Nc1nc(C23CC4CC(CC(C4)C2)C3)cs1)c1cc2c(ccc3ccccc32)oc1=O
TGI (A498 renal): > 100 µM
TGI (CAKI-1 renal): > 100 µM
TGI (HCC-2998 colon): > 100 µM
TGI (HL-60(TB) leukemia): > 100 µM
TGI (K-562 leukemia): > 100 µM
TGI (MCF7 breast): > 100 µM
TGI (NCI-H23 lung): > 100 µM
TGI (OVCAR-3 ovarian): > 100 µM
TGI (RPMI-8226 leukemia): > 100 µM
TGI (SK-MEL-28 melanoma): > 100 µM
TGI (SK-MEL-5 melanoma): > 100 µM
TGI (SNB-19 CNS): > 100 µM
TGI (TK-10 renal): > 100 µM

Cn1c(=O)oc2cc(Br)ccc21
TGI (A498 renal): > 100 µM
TGI (CAKI-1 renal): > 100 µM
TGI (HCC-2998 colon): > 100 µM
TGI (HL-60(TB) leukemia): > 100 µM
TGI (K-562 leukemia): > 100 µM
TGI (MCF7 breast): > 100 µM
TGI (NCI-H23 lung): > 100 µM
TGI (OVCAR-3 ovarian): > 100 µM
TGI (RPMI-8226 leukemia): > 100 µM
TGI (SK-MEL-28 melanoma): > 100 µM
TGI (SK-MEL-5 melanoma): > 100 µM
TGI (SNB-19 CNS): > 100 µM
TGI (TK-10 renal): > 100 µM

CCN(CC)CCNc1ccc(C)c2sc3ccccc3c(=O)c12
TGI (A498 renal): 8.05 µM
TGI (CAKI-1 renal): 8.02 µM
TGI (HCC-2998 colon): 14 µM
TGI (HL-60(TB) leukemia): 3.85 µM
TGI (K-562 leukemia): 6.08 µM
TGI (MCF7 breast): 5.8 µM
TGI (NCI-H23 lung): 10.3 µM
TGI (OVCAR-3 ovarian): 16.8 µM
TGI (RPMI-8226 leukemia): 4.37 µM
TGI (SK-MEL-28 melanoma): 3.51 µM
TGI (SK-MEL-5 melanoma): 5.4 µM
TGI (SNB-19 CNS): 8.85 µM
TGI (TK-10 renal): 11 µM
